Results reported in patent publication US20220226499A1, “Metabolite Delivery for Modulating Metabolic Pathways of Cells” (Arizona Board of Regents on Behalf of Arizona State …, priority 2019, published 2022).

Columns and labels:
[1] = test system: DCs; assay: Seahorse Assay (ECAR and OCR)
Procedure: Lipopolysaccharide (LPS) was used as a positive control, and no treatment was used as a negative control.
Sequential injections were performed with D-glucose (10 mM), oligomycin (1 mM), and 2-deoxyglucose (100 mmol/L). The extracellular acidification rates (ECAR) after the injection of D-glucose was a measure of glycolysis, and the ECAR after the injection of oligomycin represented maximal glycolytic capacity. Non-glycolytic activity was quantified by the measure of ECAR after the injection of 2-deoxyglucose. Samples were analyzed with 10 technical replicates.
For oxidative phosphorylation, 24 hours after cell seeding, media was changed to unbuffered DMEM containing 2 mM glutamine, 1 mM pyruvate, and 10 mM glucose. […] The oxygen consumption rate (OCR) after the injection of oligomycin was a measure of ATP-linked respiration and the OCR after the injection of FCCP represented maximal respiratory capacity. Basal respiration was quantified by the measure of OCR prior to the injection of oligomycin. Samples were analyzed with 10 technical replicates.

[2] = test system: DCs; assay: DC activation and cytokine expression by flow cytometry; assay type: cell-based, C57BL/6j mice; conditions: for CD86 expression in CD11c+ cells: equivalent amount as PaKG MPs, vs no treatment control and PaKG MP condition
Procedure: Briefly, femur and tibia from mice were isolated and kept in wash media composed of DMEM/F-12 (1:1) with L-glutamine, 10% fetal bovine and 1% penicillin-streptomycin. The ends of the bones were cut, and bone marrow was flushed out with 10 mL wash media and mixed to make a homogeneous suspension. Red blood cells were lysed by incubating and resuspending the pellet in 3 mL 1× red blood cell (RBC) lysis buffer for 3 minutes at 4° C. The cell suspension was then washed twice with wash media and re-suspended in DMEM/F-12 with L-glutamine, 10% fetal bovine serum, 1% sodium pyruvate, 1% non-essential amino acids (VWR, Radnor, Pa.), 1% penicillin-streptomycin and 20 ng/ml GM-CSF (DC media). All % values shown here are vol/vol. This cell suspension was then seeded in a tissue culture-treated T-75 flask (day 0). After 48 hours (day 2), floating cells were collected, centrifuged, re-suspended in fresh media and seeded on low attachment plates for 6 additional days. Half of the media was changed every alternate day. At the end of 6 days (day 8), cells were lifted from the low attachment wells by gentle pipetting, re-suspended and seeded on tissue culture-treated polystyrene plates for 2 more days before treating them. […] Purity, yield, and immaturity of DCs (CD11c, MHC-II and CD86) were verified via immunofluorescence staining and flow cytometry. Dendritic cells were isolated from at least 3 separate mice for each experiment.

Molecule | glycolysis levels compared to PaKG MPs ([1]; DCs) | glycolysis ([1]; vs no treatment control (PaKG MPs also vs LPS)) | CD86 expression in CD11c+ cells [2] | frequency of MHC-II+CD86+ in DCs ([2]; vs untreated immature DCs)
O=C(O)CCC(=O)C(=O)O [soluble aKG, alpha-ketoglutarate] | higher | decreased | did not significantly change | –
OCCCCCCCCCCO [1,10-decanediol] | – | – | did not significantly change | –
Lipopolysaccharide [LPS] | – | – | – | significantly upregulated
